Consider four compounds from paper PMC10923054, “Antiplasmodial peptaibols act through membrane directed mechanisms” (Cell Chemical Biology, 2024).

A word on the EC50: it is the concentration giving half of the maximal effect.

The structures appear in SMILES notation. Square brackets hold non-standard residues; d marks the D form. Peptide text beside a SMILES is read from it. Phe(ol) = N[C@H](CO)Cc1ccccc1; Leu(ol) = CC(C)C[C@H](N)CO; dIva = CC[C@@](C)(N)C(=O)O; Aib = CC(C)(N)C(=O)O

For one series, the system named is P. falciparum 3D7. Briefly: Phenotypic screen: asexual blood stage EC50 determination (SYBR Green I). To be noted: CQ sensitive line, asynchronous culture, 72 h, mean ± SEM, biological triplicate. The class given is cell-based. The method, then: Asexual blood stage parasites grown in the Chakrabarti laboratory were cultured based on a protocol by Trager and Jensen[57] with some modifications.[35] Culture was maintained at 4% hematocrit with human A+ whole blood obtained from the Florida OneBlood, in RPMI 1640 supplemented with 25 mM HEPES pH 7.4, 26 mM NaHCO3, 2% dextrose, 15 mg/L hypoxanthine, 25 mg/L gentamycin, and 0.5% Albumax II. Incubator conditions remained at 37°C and 5% CO2, 5% O2, 90% N2, or 95% air. For comparison screening using serum vs Albumax II, culture media was changed from RPMI with 0.5% Albumax II to RPMI with 10% human serum and maintained for a minimum of 2 weeks prior to assay use.
(§1) Inhibitor EC50 determination in 3D7 and Dd2 was performed as discussed in,[35] based on established protocols.[60] Assays utilized asynchronous culture at 1% parasitemia, 1% hematocrit. Culture was incubated with compound dilutions for 72 h followed by freezing at −80°C to promote lysis, then thawing and incubation for 45 min–1 h with 1× SYBR Green I in a lysis buffer (20 mM Tris-HCL, 0.08% saponin, 5 mM EDTA, and 0.8% Triton X-100). Fluorescence was read 485 nm excitation, 530 nm emission on a Synergy Neo2 multimode reader (BioTek Winsooki, VT) and EC50 curves were generated using CDD Vault (https://www.collaborativedrug.com/).

For a further series, the system named is red blood cell (RBC). Briefly: Percent hemolysis determination. As to Hemolytic Potential: key: -: A '–' indicates a negative finding; a single '+' indicates a positive finding; a double '++' indicates a strong positive finding. To be noted: for hemolysis at 25 μM: RBCs in PBS, 1% hematocrit, 1 h, 37°C, absorbance 550 nm, 0.01% saponin control, biological triplicate; for Hemolytic Potential: Figure 7A summary. It counts as cell-based, human. The method, then:
Hemolysis assay performed as outlined in Duvall et al. with some modifications.[63] Whole blood was first washed and resuspended in PBS to isolate RBCs. Compound was then added in serial dilutions to PBS with 1% hematocrit, with vehicle or 0.01% saponin used as controls. Plates were incubated for 1 h at 37°C then centrifuged for 10 min at 900 x g. Supernatant was then transferred to a clear plate and absorbance was read at 550 nm. Extended incubation with compound (up to 3 days) was performed during assay optimization, with no changes noted in percent hemolysis.

In another series the test system is asynchronous Dd2 culture. Briefly: Killing profile (flow cytometry, SYBR Green I / Mitotracker Deep Red FM). The class given is cell-based, P. falciparum. To be noted: for Killing Profile: 10 x EC50. The procedure: Killing profile analyses were performed as previously described,[64] in asynchronous Dd2 culture, starting at approximately 1% parasitemia, 4% hematocrit. Compound was added to culture in majority ring stage and incubated for 12, 24, or 48 h prior to washing and sample collection. Media were then changed normally every 24 h for 6 days. Samples taken each day were used for Giemsa thin smears, and flow cytometric analysis to monitor parasitemia and mitotracker retention. For staining, samples were incubated in a solution of 1:1000 SYBR Green I and 0.6 μM Mitotracker Deep red FM for 30 min then read on a CytoFLEX S (Beckman Coulter, Brea, CA), with 100,000 events recorded per sample. Flow cytometry was gated in FlowJo Version 10 using DHA, vehicle, no Mitotracker, and uninfected RBC controls. Assay workflow outline was created using BioRender.
In general terms: Flow cytometry measures light scatter and fluorescence of single cells or particles in a stream.

The subject of series [1] is P. falciparum asexual blood stage parasites grown in 10% human serum. Nature of the series: Antiplasmodial activity with serum media. The class given is cell-based. To be noted: RPMI with 10% human serum, maintained minimum 2 weeks; mean ± SEM from 3 biological replicates. The procedure: Asexual blood stage parasites grown in the Chakrabarti laboratory were cultured based on a protocol by Trager and Jensen[57] with some modifications.[35] […] For comparison screening using serum vs Albumax II, culture media was changed from RPMI with 0.5% Albumax II to RPMI with 10% human serum and maintained for a minimum of 2 weeks prior to assay use.
as §1

Series [2] concerns Dd2 strain parasites, digestive vacuole. Briefly: Transmission electron microscopy of treated parasites. Also: key: -: A '–' indicates a negative finding; a single '+' indicates a positive finding; a double '++' indicates a strong positive finding. The class given is cell-based, P. falciparum. To be noted: Figure 7A summary. The method, then:
For TEM imaging, samples were prepared as previously described.[67] […] Culture was collected by centrifugation and washed with PBS, pH 7.4. Samples were then fixed in 2% paraformaldehyde, 2.5% glutaraldehyde, in a 0.1 M sodium cacodylate buffer, pH of 7.4, (Electron Microscopy Sciences, Hatfield, PA) and incubated for 2 h at room temp with mild shaking. After fixation, samples were pelleted and stored cold but not frozen in 0.2 M sodium cacodylate buffer prior to staining and embedment in Eponate 12 resin (Ted Pella Inc.). Images were taken using a JEOL 1200 EX transmission electron microscope (JEOL USA Inc., Peabody MA) and processed in AMT Image Capture Engine V602 software (Advanced Microscopy Techniques, Woburn, MA.).

Series [3] relates to synchronized Dd2 parasites. Briefly: Synchronous stage specificity assay (SSA). It counts as cell-based, P. falciparum. Conditions: for stage of parasite arrest when added at 6 HPI: 5 x EC50 (TC HA-II 3 x EC50), Giemsa and YOYO-1 flow cytometry; for Stage of Inhibition: Figure 7A summary. The method, then:
SSA was performed in triplicate as previously described.[64] In summary, Dd2 culture was synchronized by combination of MACS column[65] and sorbitol treatment,[66] and cultured at 1% parasitemia, 2% hematocrit, for 54 h. Compound was added at approximately 6, 18, 30, or 42 HPI, and samples were taken every 12 h after treatment times for Giemsa staining and flow cytometric analysis. HZ NPDG-H and HZ NPDG-I were tested at 5 x EC50, TC HA-II tested at 3 x EC50 due to its higher hemolytic potential. All test values above EC90. Flow samples were fixed in 4% paraformaldehyde, incubated for 30 min at 37°C, then washed 3 times in PBS. Fixed samples were stored at 4°C prior to staining, then resuspended in 0.25% Trition X-100 and incubated for 10 min with shaking. Permeabilized samples were centrifuged and resuspended in a 50 μg/mL RNase solution, and incubated for 3 h at 37°C. After centrifugation, samples were resuspended in a YOYO-1 solution (500 nM final concentration) and read on a CytoFLEX S (Beckman Coulter, Brea, CA) at 488 nm excitation, with 100,000–500,000 events recorded per sample. Infected RBCs were gated using an uninfected RBC control in FlowJo version 10. After gating populations, FITC channel values were extracted from FlowJo and the sum total fluorescence of the iRBCs and the median fluorescence for each timepoint were graphed in Graph Pad Prism Version 9. Assay workflow outline was created using BioRender.

Where [4] appears, read: 10 x EC50, monitored for 6 days, 3 biological replicates.

Regarding `CC(=O)NC(C)(C)C(=O)N1CCC[C@H]1C(=O)NC(C)(C)C(=O)N[C@@H](C)C(=O)NC(C)(C)C(=O)N[C@@H](C)C(=O)N[C@@H](CCC(N)=O)C(=O)NC(C)(C)C(=O)N[C@H](C(=O)NC(C)(C)C(=O)NCC(=O)N[C@@H](CC(C)C)C(=O)NC(C)(C)C(=O)N1CCC[C@H]1C(=O)N[C@H](C(=O)NC(C)(C)C(=O)NC(C)(C)C(=O)N[C@@H](CCC(=O)O)C(=O)N[C@@H](CCC(N)=O)C(=O)N[C@H](CO)Cc1ccccc1)C(C)C)C(C)C` [Alamethicin, reference compound] (Ac-[Aib]P[Aib]A[Aib]AQ[Aib]V[Aib]GL[Aib]PV[Aib][Aib]EQ[Phe(ol)]; N-terminus assumed), the EC50 with P. falciparum 3D7 came to 540 ± 30 nM. Also, the “hemolysis at 25 μM” value in the series on red blood cell (RBC) worked out at 73%.
In the case of `CC[C@H](C)[C@H](NC(=O)[C@H](C)NC(=O)[C@@H]1CCCN1C(=O)C(C)(C)NC(=O)[C@H](CC(C)C)NC(=O)[C@H](CCC(N)=O)NC(=O)[C@@](C)(CC)NC(C)=O)C(=O)NC(C)(C)C(=O)N1CCC[C@H]1C(=O)N[C@](C)(CC)C(=O)N[C@@H](CC(C)C)C(=O)NC(C)(C)C(=O)N1CCC[C@H]1C(=O)N[C@H](CO)CC(C)C` [HZ NPDG-H, harzianin NPDG H] (Ac-[dIva]QL[Aib]PAI[Aib]P[dIva]L[Aib]P[Leu(ol)]), the figures for the “Killing Profile” value with asynchronous Dd2 culture and in the series with asynchronous Dd2 culture (listed as Harzianin NPDG H) were “cytostatic” and “Slow”, respectively. Besides, the “parasitemia after 12 h incubation and washout” value with asynchronous Dd2 culture (setting [4]) was “recovered by day 3”. In addition, in the series on asynchronous Dd2 culture (setting [4]), the “parasitemia after 48 h incubation and washout” value is listed as “increase in parasitemia at day 5”. The EC50 in the series with P. falciparum 3D7 came to 120 ± 10 nM; in series [1] it was 690 ± 90 nM. Besides, in the series on red blood cell (RBC), the “Hemolytic Potential” value was “-”. The “DV Abnormalities” value in series [2] is on record as “+”. The “stage of parasite arrest when added at 6 HPI” value (“stage of parasite arrest” for short) in series [3] was “late trophozoite to early schizont stage”. For the same compound, in series [3], the “Stage of Inhibition” value was “Schizont”.
`CC[C@@](C)(NC(=O)C(C)(C)NC(=O)[C@H](CC(C)C)NC(=O)[C@@H]1CCCN1C(=O)C(C)(C)NC(=O)[C@H](CC(C)C)NC(=O)CNC(=O)C(C)(C)NC(=O)[C@@H](NC(=O)C(C)(C)NC(=O)[C@H](CCC(N)=O)NC(=O)C(C)(C)NC(=O)C(C)(C)NC(=O)[C@H](C)NC(=O)CNC(=O)C(C)(C)NC(C)=O)C(C)C)C(=O)N[C@@H](CCC(N)=O)C(=O)N[C@H](CO)CC(C)C` [TC HA-II, trichorzin HA II] (Ac-[Aib]GA[Aib][Aib]Q[Aib]V[Aib]GL[Aib]PL[Aib][dIva]Q[Leu(ol)]): in the series with asynchronous Dd2 culture, the “Killing Profile” value is listed as “Rapid”. The “parasitemia after 12 h incubation and washout” value in the series with asynchronous Dd2 culture (setting [4]) is “inhibit parasitemia for all 6 days”. Also, in the series with P. falciparum 3D7, the EC50 was 390 ± 90 nM. Besides, the EC50 in series [1] stood at 2200 ± 270 nM. In the series on red blood cell (RBC), the “hemolysis at 25 μM” value came to 53% and the “Hemolytic Potential” value was “+”. The “DV Abnormalities” value in series [2] was “+”. In addition, in series [3], the “stage of parasite arrest” value is “early arrest with a condensed permatroph morphology” and the “Stage of Inhibition” value is “Ring”.
As to `CC[C@H](C)[C@H](NC(=O)[C@H](CC(C)C)NC(=O)[C@H](CCC(N)=O)NC(=O)[C@@](C)(CC)NC(C)=O)C(=O)NC(C)(C)C(=O)N1CCC[C@H]1C(=O)N[C@](C)(CC)C(=O)N[C@@H](CC(C)C)C(=O)NC(C)(C)C(=O)N1CCC[C@H]1C(=O)N[C@H](CO)CC(C)C` [HZ NPDG-I, harzianin NPDG I] (Ac-[dIva]QLI[Aib]P[dIva]L[Aib]P[Leu(ol)]), the “Killing Profile” value in the series with asynchronous Dd2 culture is recorded as “Rapid”. For the same compound, the “parasitemia after 12 h incubation and washout” value with asynchronous Dd2 culture (setting [4]) is “inhibit parasitemia for all 6 days”. The EC50 in the series on P. falciparum 3D7 came out at 120 ± 10 nM; in series [1], 260 ± 30 nM. The “Hemolytic Potential” value in the series on red blood cell (RBC) is “-”. In series [2], the “DV Abnormalities” value is reported as “+”. Also, the “stage of parasite arrest” value in series [3] is given as “arrest parasite development in early ring”. In addition, the “Stage of Inhibition” value in series [3] is “Ring”.
